Results published in patent US20050267166A1, “Continuous dosing regimen” (priority 2004, published 2005).

How the values were obtained:
[1] = test system: M5076 transplantable murine reticulum cell sarcoma; details: for ILS: comparator drugs, dose not given; for antitumor activity in the M5076 model: in words
[2] = target: biotinylated bovine brain tubulin
[3] = test system: HCT-15 human colon carcinoma; assay: HCT-15 human colon carcinoma xenografts; format: in vivo; details: in words
From the text: HCT-15 is a human colon carcinoma derived cell line. It is MDR positive, and expresses both mutant p53 and oncogenic K-ras. The HCT-15 cell line has one of the highest levels of mdr-1/P-glycoprotein expression of cells from the NCI tumor cell line panel.
Effect of Cytotoxic Agents on the Growth of HCT-15 Human Colon Carcinoma Xenografts

[4] = test system: NCI-H460 human non-small cell lung carcinoma; assay: NCI-H460 xenograft model; format: in vivo; details: in words
From the text: NCI-H460 is a human non-small cell lung carcinoma derived cell line. It is MDR negative, has wild type p53, and contains an oncogenic K-ras mutation.

C26 colon tumors = C26 colon tumors grown in the flank of CDF-1 mice; format: in vivo; details: comparator, regimen not given

Row | Ki ([2]; competition of [3H]colchicine) | displacement of [3H]colchicine from the colchicine site of tubulin β-subunits ([2]; in words) | SMILES | ILS [1] | antitumor activity in the M5076 model [1] | efficacy in HCT-15 xenografts [3] | efficacy in the NCI-H460 xenograft model [4] | efficacy against C26 colon tumors (C26 colon tumors)
1 |  |  | COc1cccc2c1C(=O)c1c(O)c3c(c(O)c1C2=O)C[C@@](O)(C(=O)CO)C[C@@H]3O[C@H]1C[C@H](N)[C@H](O)[C@H](C)O1 [doxorubicin] | 13% | only marginally active |  |  | 
2 | > 100 µM | do not displace | CC[C@]1(O)C[C@@H]2CN(CCc3c([nH]c4ccccc34)[C@@](C(=O)OC)(c3cc4c(cc3OC)N(C)[C@H]3[C@@](O)(C(=O)OC)[C@H](OC(C)=O)[C@]5(CC)C=CCN6CC[C@]43[C@@H]65)C2)C1 [vinblastine] |  |  |  |  | 
3 |  |  | O=P1(N(CCCl)CCCl)NCCCO1 (stereo not shown) [cyclophosphamide] |  | sensitive |  |  | 
4 |  |  | CC[C@]1(O)C[C@H]2CN(CCc3c([nH]c4ccccc34)[C@@](C(=O)OC)(c3cc4c(cc3OC)N(C=O)[C@H]3[C@@](O)(C(=O)OC)[C@H](OC(C)=O)[C@]5(CC)C=CCN6CC[C@]43[C@@H]65)C2)C1 [vincristine, reference compound] | 17% | only marginally active | not efficacious | lacked activity | 
5 |  |  | CC(=O)O[C@H]1C(=O)[C@@]2(C)[C@H]([C@H](OC(=O)c3ccccc3)[C@]3(O)C[C@H](OC(=O)[C@H](O)[C@@H](NC(=O)c4ccccc4)c4ccccc4)C(C)=C1C3(C)C)[C@]1(OC(C)=O)CO[C@@H]1C[C@@H]2O [paclitaxel, reference compound] |  | resistant | not efficacious | lacked activity | not efficacious
